Earlier results on 1 compound are cited in patent publication US20240252632A1, “METHODS OF TREATING LUNG CANCER WITH A PD-1 AXIS BINDING ANTAGONIST, AN ANTIMETABOLITE, AND A PLATINUM AGENT” (Genentech, Inc., priority 2018, published 2024).

On to `[NH3+][Pt-2]1([NH3+])[O]C(=O)C2(CCC2)C(=O)[O]1` [Carboplatin, platinum, diammine[1,1-cyclobutanedicarboxylato(2-)-O,O′]—, (SP-4-2)], for which the “solubility in ethanol, acetone, and dimethylacetamide” value (ethanol, acetone, dimethylacetamide) was “virtually insoluble”. For the same compound, the solubility in water entry (water) is listed as “approximately 14 mg/mL”.
